Results reported in publication PMC10535268, “Design, Synthesis, and Evaluation of Novel Indole Hybrid Chalcones and Their Antiproliferative and Antioxidant Activity” (Molecules, 2023).
Where “and” joins values, the source holds several entries; their conditions need not be identical. Identical values can stand only once.

Experiments:
[1] = tested on: HCT116; assay: MTT antiproliferative assay, HCT116; format: cell-based, human; details: mean ± SD of three independent experiments
[2] = Ferric reducing antioxidant power (FRAP); details: sample 1 mM, 30 min, gallic acid equivalents, mean (±SD), triplicate
From the text: (§1) Table 3 Antioxidant activity.

[3] = DPPH radical scavenging activity; details: sample 1 mM; for DPPH: 30 min, gallic acid equivalents, mean (±SD), triplicate
[4] = tested on: MDA-MB-231; assay: MTT antiproliferative assay, MDA-MB-231; format: cell-based, human; details: MDA-MB-231, 72 h incubation, mean ± SD of three independent experiments
[5] = tested on: Jurkat; assay: MTT antiproliferative assay, Jurkat; format: cell-based, human; details: 72 h incubation, mean ± SD of three independent experiments
[6] = tested on: MCF-10A; assay: MTT cytotoxicity assay, non-cancer MCF-10A; format: cell-based, human; details: 72 h incubation, mean ± SD of three independent experiments
[7] = ABTS radical scavenging activity; details: sample 1 mM, 30 min, gallic acid equivalents, mean (±SD), triplicate
From the text: as §1

[8] = tested on: Hela; assay: MTT antiproliferative assay, HeLa; format: cell-based, human; details: 72 h incubation, mean ± SD of three independent experiments
Experimental: Table 2 IC50 (μM) ± SD of tested compounds in different cell lines after 72 h incubation. | column: Cell Line, IC50 (µM) ± SD / Hela

[9] = tested on: MCF-7; assay: MTT antiproliferative assay, MCF-7; format: cell-based, human; details: mean ± SD of three independent experiments
[10] = tested on: Bj-5ta; assay: MTT cytotoxicity assay, non-cancer Bj-5ta; format: cell-based, human; details: 72 h incubation, mean ± SD of three independent experiments
[11] = Homo sapiens, HCT-116, 72 h, HCT116, 72 h incubation
[12] = Homo sapiens, MCF7, 72 h, MCF-7, 72 h incubation
[13] = Homo sapiens, HCT-116, HCT116, 72 h incubation
[14] = Homo sapiens, MCF7, MCF-7, 72 h incubation

IC50 ([1]; HCT116, 72 h incubation) [µM] | IC50 [4] [µM] | IC50 [5] | IC50 [8] [µM] | IC50 ([9]; MCF-7, 72 h incubation) [µM] | IC50 ([4]; Homo sapiens) [µM] | IC50 ([8]; Homo sapiens, HeLa, 72 h) [µM] | IC50 [9, 12] [µM] | melting point [°C] | SMILES | FRAP [2] | DPPH [3] | IC50 [6] [µM] | ABTS [7] | IC50 ([6]; Homo sapiens, MCF-10A, 72 h) [µM] | further results
31.8 ± 2.1 | 51.4 ± 3.2 | < 8.3 µM and 7.6 µM | 41.7 ± 0.2 | 37.1 ± 0.4 | – | – | – | – | O=C(/C=C/c1c[nH]c2ccccc12)c1ccccc1F [11a, (2E)-1-(2″-Fluorophenyl)-3-(1′H-indol-3′-yl)prop-2-en-1-one] | 62.2 (±9.9) µmol GAE/mmol | 20.5 (±4.0) µmol GAE/mmol | 89.1 ± 2.4 | 150.6 (±4.7) µmol GAE/mmol | – | –
41.5 ± 1.7 | > 100 | 32.4 ± 1.2 µM | 57.9 ± 0.4 | 47.5 ± 4.3 | – | – | – | – | Cn1cc(/C=C/C(=O)c2ccccc2F)c2ccccc21 [11b, (2E)-1-(2″-Fluorophenyl)-3-(1′-metyl-1′H-indol-3′-yl)prop-2-en-1-one] | 47.2 (±1.0) µmol GAE/mmol | 18.9 (±2.3) µmol GAE/mmol | > 100 | 5.7 (±2.7) µmol GAE/mmol | – | –
37.9 ± 2.7 | 21.1 ± 3.9 | < 8.3 µM and 5.9 µM | 19.2 ± 5.7 | 20 ± 7.9 | – | – | – | – | COn1cc(/C=C/C(=O)c2ccccc2F)c2ccccc21 [11c, (2E)-1-(2″-Fluorophenyl)-3-(1′-methoxy-1′H-indol-3′-yl)prop-2-en-1-one] | 27.4 (±0.9) µmol GAE/mmol | 23.2 (±11.9) µmol GAE/mmol | 67 ± 2.9 | 41.4 (±6.7) µmol GAE/mmol | – | –
45.5 ± 2.4 | 95.5 ± 2.7 | 11.4 ± 1.9 µM | > 100 | 32 ± 1.2 | – | – | – | – | COc1[nH]c2ccccc2c1/C=C/C(=O)c1ccccc1F [11d, (2E)-1-(2″-Fluorophenyl)-3-(2′-methoxy-1′H-indol-3′-yl)prop-2-en-1-one] | – | – | 98 ± 1.3 | – | – | –
40.1 ± 0.6 | 72.2 ± 5.4 | < 8.3 µM and 8.3 µM | 75.2 ± 4.1 | 30.3 ± 2.2 | – | – | – | – | CCOc1[nH]c2ccccc2c1/C=C/C(=O)c1ccccc1F [11e, (2E)-3-(2′-ethoxy-1′H-indol-3′-yl)-1-(2″-fluorophenyl)prop-2-en-1-one] | – | – | 94 ± 4.6 | – | – | –
31.7 ± 1.7 | 33.3 ± 0.3 | 36.7 ± 4.9 µM | 34.2 ± 0.1 | 17.1 ± 2.3 | – | – | – | – | CC(C)Oc1[nH]c2ccccc2c1/C=C/C(=O)c1ccc(F)cc1 [11g, (2E)-1-(4″-Fluorophenyl)-3-(2′-isopropoxy-1′H-indol-3′-yl)prop-2-en-1-one] | – | – | 41.8 ± 1.5 | – | – | –
– | – | – | – | – | 51.2 ± 4.1 | 50 ± 1.8 | 26.2 ± 0.5 | – | COCC(C)Oc1[nH]c2ccccc2c1/C=C/C(=O)c1ccccc1F (centres unmarked) [11j, (2E)-1-(2-fluorophenyl)-3-{2-[(1-methoxypropan-2-yl)oxy]-1H-indol-3-yl}prop-2-en-1-one] | – | – | – | – | 76.5 ± 1.1 | IC50 [1, 11]: 32.4 ± 1.3 µM; IC50 ([5]; Homo sapiens): 40.4 ± 2.1 µM
– | – | – | – | – | 64.5 ± 4.7 | 52.9 ± 1.6 | 38.1 ± 3.3 | 140 to 143 | O=C(/C=C/c1c(OCCO)[nH]c2ccccc12)c1ccccc1F [11k, (2E)-1-(2-fluorophenyl)-3-[2-(2-hydroxyethoxy)-1H-indol-3-yl]prop-2-en-1-one] | – | – | – | – | 94.7 ± 2.6 | IC50 [1, 11]: 39.4 ± 1.5 µM; IC50 ([5]; Homo sapiens): 37.8 ± 0.9 µM
– | – | – | – | – | > 100 | 32.8 ± 0.4 | 20.5 ± 5.1 | 182 to 184 | Cn1cc(/C=C/C(=O)c2ccc(C(F)(F)F)cc2)c2ccccc21 [12b, (2E)-3-(1-methyl-1H-indol-3-yl)-1-(4-trifluoromethylphenyl) prop-2-en-1-one] | – | – | – | – | > 100 | IC50 [1, 11]: 12.3 ± 0.2 µM; IC50 ([5]; Homo sapiens): > 100 µM; IC50 ([10]; Homo sapiens): > 100 µM
– | – | – | – | – | 81.3 ± 1.2 | 98 ± 2.8 | 86 ± 3.5 | 113 to 115 | COn1cc(/C=C/C(=O)c2ccc(C(F)(F)F)cc2)c2ccccc21 [12c, (2E)-3-(1-methoxy-1H-indol-3-yl)-1-(4-trifluoromethylphenyl) prop-2-en-1-one] | – | – | – | – | 38.4 ± 3.1 | IC50 [1, 11]: 55.3 ± 1.7 µM; IC50 ([5]; Homo sapiens): 39.3 ± 1.2 µM; IC50 ([10]; Homo sapiens): > 100 µM
– | – | – | – | – | 92.7 ± 1.8 | 39.6 ± 3.5 | 44.7 ± 2.6 | 179.5 to 181 | O=C(/C=C/c1c[nH]c2ccccc12)c1ccccc1O [13a, (2E)-1-(2-hydroxyphenyl)-3-(1H-indol-3-yl)prop-2-en-1-one] | 125.2 (±9.4) µmol GAE/mmol | 14.2 (±0.4) µmol GAE/mmol | – | 292.4 (±12.4) µmol GAE/mmol | 55.4 ± 3.6 | IC50 [1, 11]: 40.5 ± 3.1 µM; IC50 ([5]; Homo sapiens): 25.9 ± 2.4 µM; IC50 ([10]; Homo sapiens): 81.5 ± 0.2 µM
– | – | – | – | – | 39.6 ± 2.1 | 31.4 ± 2 | 47.9 ± 0.2 | 197 to 200 | O=C(/C=C/c1ccc(O)cc1)c1c[nH]c2ccccc12 [17a, (2E)-3-(4-hydroxyphenyl)-1-(1H-indol-3-yl)prop-2-en-1-one] | 161.6 (±5.7) µmol GAE/mmol | 16.0 (±1.1) µmol GAE/mmol | – | 227.6 (±5.4) µmol GAE/mmol | 28.6 ± 0.5 | –
– | – | – | – | – | > 100 | 39.8 ± 1.6 | > 100 | 213 to 215 | COn1cc(C(=O)/C=C/c2ccc(O)cc2)c2ccccc21 [17c, (2E)-3-(4-hydroxyphenyl)-1-(1-methoxy-1H-indol-3-yl)prop-2-en-1-one] | 134.1 (±6.7) µmol GAE/mmol | 13.6 (±0.9) µmol GAE/mmol | – | 209.0 (±6.6) µmol GAE/mmol | > 100 | –
– | – | – | – | – | 39.3 ± 1.9 | – | 42.3 ± 3.3 | 212 to 215 | O=C(/C=C/c1ccc(O)c(O)c1)c1c[nH]c2ccccc12 [18a, (2E)-3-(3,4-dihydroxyphenyl)-1-(1H-indol-3-yl)prop-2-en-1-one] | 480.9 (±28.8) µmol GAE/mmol | 520.1 (±6.9) µmol GAE/mmol | – | 401.2 (±39.2) µmol GAE/mmol | 11.5 ± 1.4 | IC50 [1, 11]: 29.8 ± 0.7 µM
– | – | – | – | – | – | – | – | 155 to 156 | COc1cc(/C=C/C(=O)c2cn(OC)c3ccccc23)ccc1O [19c, (2E)-3-(4-hydroxy-3-methoxyphenyl)-1-(1-methoxy-1H-indol-3-yl)prop-2-en-1-one] | 296.2 (±10.4) µmol GAE/mmol | 207.7 (±8.6) µmol GAE/mmol | – | 456.0 (±24.6) µmol GAE/mmol | – | –
– | – | – | – | – | – | – | – | – | O=C(O)/C=C/c1ccc(O)c(O)c1 [caffeic acid, reference compound] | 500.0 (±33.5) µmol GAE/mmol | 690.7 (±36.6) µmol GAE/mmol | – | 586.0 (±32.8) µmol GAE/mmol | – | DPPH activity [3]: 690.7 ± 36.6 GAE/mmol
– | – | – | – | – | – | – | – | – | O=C(O)/C=C/c1ccc(O)cc1 [p -coumaric acid, p-coumaric acid, reference compound] | 105.2 (±4.2) µmol GAE/mmol | 23.0 (±3.1) µmol GAE/mmol | – | 278.8 (±11.1) µmol GAE/mmol | – | –

SMILES | IC50 ([1]; HCT116, 72 h incubation) [µM] | IC50 [4] [µM] | IC50 [5] | IC50 [8] [µM] | IC50 ([9]; MCF-7, 72 h incubation) [µM] | IC50 ([4]; Homo sapiens) [µM] | IC50 ([8]; Homo sapiens, HeLa, 72 h) [µM] | IC50 [9, 12] [µM] | melting point [°C] | FRAP [2] | DPPH [3] | IC50 [6] [µM] | ABTS [7] | IC50 ([6]; Homo sapiens, MCF-10A, 72 h) [µM] | further results
CCCCOc1[nH]c2ccccc2c1/C=C/C(=O)c1ccccc1F [11h, (2E)-3-(2′-butoxy-1′H-indol-3′-yl)-1-(2″-fluorophenyl)prop-2-en-1-one] | 31 ± 2.9 | 36.3 ± 2.1 | 35.9 ± 1.8 µM | 48.2 ± 1 | 13.8 ± 3.5 | – | – | – | – | – | – | 65.5 ± 3.7 | – | – | –
CC(C)COc1[nH]c2ccccc2c1/C=C/C(=O)c1ccc(F)cc1 [11i, (2E)-3-(2′-isobutoxy-1′H-indol-3′-yl)-1-(4″-fluorophenyl)prop-2-en-1-one] | 33.8 ± 0.1 | 42.9 ± 0.4 | 40.1 ± 3.2 µM | 54.6 ± 3.6 | 30.7 ± 0.6 | – | – | – | – | – | – | 93.3 ± 3.4 | – | – | –
Cn1cc(C(=O)/C=C/c2ccc(O)cc2)c2ccccc21 [17b, (2E)-3-(4-hydroxyphenyl)-1-(1-methyl-1H-indol-3-yl)prop-2-en-1-one] | – | – | – | – | – | – | – | – | 236 to 239 | 156.2 (±1.1) µmol GAE/mmol | 20.7 (±6.6) µmol GAE/mmol | – | 218.9 (±5.6) µmol GAE/mmol | – | IC50 [1, 13]: > 100 µM; IC50 ([6]; Homo sapiens): 22.8 ± 0.4 µM; IC50 [9, 14]: 50.3 ± 0.6 µM
Cn1cc(C(=O)/C=C/c2ccc(O)c(O)c2)c2ccccc21 [18b, (2E)-3-(3,4-dihydroxyphenyl)-1-(1-methyl-1H-indol-3-yl)prop-2-en-1-one] | – | – | – | – | – | – | – | – | 210 to 214 | 564.8 (±2.2) µmol GAE/mmol | 589.1 (±8.9) µmol GAE/mmol | – | 487.3 (±43.9) µmol GAE/mmol | – | IC50 [1, 13]: 7.1 ± 0.7 µM; IC50 ([6]; Homo sapiens): 7.8 ± 0.3 µM; IC50 ([8]; Homo sapiens): 6.7 ± 0.8 µM; IC50 [9, 14]: 37.4 ± 2.2 µM
COc1cc(/C=C/C(=O)c2cn(C)c3ccccc23)ccc1O [19b, (2E)-3-(4-hydroxy-3-methoxyphenyl)-1-(1-methyl-1H-indol-3-yl)prop-2-en-1-one] | – | – | – | – | – | – | – | – | 170 to 172 | 262.2 (±14.2) µmol GAE/mmol | 225.6 (±14.7) µmol GAE/mmol | – | 410.7 (±28.9) µmol GAE/mmol | – | IC50 ([6]; Homo sapiens): 28.9 ± 0.8 µM; IC50 ([8]; Homo sapiens): 34.9 ± 1.3 µM; IC50 [9, 14]: 69.8 ± 1.1 µM
N.N.[Cl][Pt][Cl] [Cisplatin, reference compound] | 15.3 ± 1.6 | 17.4 ± 0.2 | 6.3 ± 0.4 µM | 6.5 ± 0.5 | 24.6 ± 2.1 | – | – | – | – | – | – | 25.9 ± 2.1 | – | – | IC50 [10]: 37.9 ± 1.9 µM
